In paper PMC10313047, “During heat stress in Myxococcus xanthus, the CdbS PilZ domain protein, in concert with two PilZ-DnaK chaperones, perturbs chromosome organization and accelerates cell death” (PLOS Genetics, 2023) one finds Kd data, which are given here for one compound.

The target of the test is T1, His6-CdbS (Myxococcus xanthus, UniProt Q1D4C1).
T1 construct: gene MXAN_4328; full-length stand-alone PilZ protein (PilZ domain residues 7-82), N-terminal His6 tag (pET28a, pMS007), made in E. coli Arctic Express (DE3) RP
Put plainly: bio-layer interferometry, streptavidin sensor, equilibrium one-site fit. The test is classed as binding. The conditions noted are these: labelled compound (biotinylated c-di-GMP immobilised on sensor); 50 mM Tris-HCl pH 7, 150 mM NaCl, 10% glycerol, 0.02% Tween-20.

T1 sequence (Q1D4C1 entry or part of it): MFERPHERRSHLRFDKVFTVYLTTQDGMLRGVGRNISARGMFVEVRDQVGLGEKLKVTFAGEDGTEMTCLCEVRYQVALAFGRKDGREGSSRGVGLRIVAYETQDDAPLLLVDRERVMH

`Nc1nc2c(ncn2[C@@H]2O[C@@H]3COP(=O)(O)O[C@H]4[C@@H](O)[C@H](n5cnc6c(=O)[nH]c(N)nc65)O[C@@H]4COP(=O)(O)O[C@H]3[C@H]2O)c(=O)[nH]1` [c-di-GMP]: the Kd result is reported as “His6-CdbS^R9A did not detectably bind c-di-GMP”.
